Data taken from patent publication US10421778B2, “Isoform-selective lysine deacetylase inhibitors” (WASHINGTON UNIVERSITY, priority 2015, dated 2019).
pEC50, pIC50: −log10 of the molar value. Like-named read-outs stand apart in the source and are kept apart here.

How the values were obtained:
recombinant human KDAC1 = target: T1, recombinant human KDAC1 (Homo sapiens, UniProt Q13547); assay: KDAC inhibition assay, Caliper EZ Reader II; format: biochemical; conditions: for KDAC Inhibition Activity KDAC1 (% inhibition): % inhibition at 30 μM
T1 construct: purchased BPS Bioscience
T1 sequence (Q13547 whole entry): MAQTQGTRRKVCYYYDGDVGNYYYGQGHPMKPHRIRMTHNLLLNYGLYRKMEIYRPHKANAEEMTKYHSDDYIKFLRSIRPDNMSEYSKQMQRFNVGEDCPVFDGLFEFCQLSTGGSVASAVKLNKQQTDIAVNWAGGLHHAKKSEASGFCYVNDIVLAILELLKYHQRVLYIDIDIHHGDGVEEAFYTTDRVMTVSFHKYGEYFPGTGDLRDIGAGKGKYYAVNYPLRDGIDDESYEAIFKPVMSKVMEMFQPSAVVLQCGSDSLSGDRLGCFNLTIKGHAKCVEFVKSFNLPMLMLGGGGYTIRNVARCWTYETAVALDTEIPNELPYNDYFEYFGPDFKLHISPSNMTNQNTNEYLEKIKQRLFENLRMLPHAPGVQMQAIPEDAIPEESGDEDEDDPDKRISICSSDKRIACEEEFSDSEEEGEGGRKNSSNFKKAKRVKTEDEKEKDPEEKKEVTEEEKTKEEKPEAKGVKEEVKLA

[1] = tested on: Resting CD4+ T cells isolated from a patient fully suppressed on antiretroviral therapy; assay: Reactivation of virus in resting CD4+ T cells of a suppressed patient (HIV-1 p24 ELISA); format: cell-based; conditions: 1 μM, 48 hours, then co-culture with MOLT4/CCR5 cells 7 days; preliminary data
Excerpt: Cells were washed and co-cultured with MOLT4/CCR5 cells for 7 days. R Cellular supernatants were collected for HIV-1 p24 ELISA. N.R—non reactive.

[2] = tested on: JLAT 10.6 cells, which have HIV-1-GFP stably integrated; assay: Reactivation of HIV from latency in JLAT 10.6 cells (GFP, FACS); format: cell-based; conditions: J-Lat 10.6, 24 h, read-out: EC50 in reactivating HIV from latency
Experimental: JLAT 10.6 cells, which have HIV-1-GFP stably integrated, were incubated with the indicated compounds for 24 hours. […] Upon stimulation with an appropriate agent, they can produce HIV as measured by GFP recognition with fluorescent-activated cell sorting (FACS). Cells were fixed and FACS performed for GFP as a surrogate for HIV production using TNF alpha as positive control. Largazoles are SDL256, JMF 1080, and SDL148. Relative activation is normalized to TNF alpha.

KDAC1, KDAC2, and KDAC3 = conditions: background statement; cited from earlier work
recombinant human KDAC8 = target: T2, recombinant human KDAC8 (Homo sapiens, UniProt Q9BY41); assay: KDAC inhibition assay, Caliper EZ Reader II; format: biochemical; conditions: for KDAC Inhibition Activity KDAC8 (% inhibition): % inhibition at 30 μM
T2 construct: purchased BPS Bioscience
T2 sequence (Q9BY41 1-377): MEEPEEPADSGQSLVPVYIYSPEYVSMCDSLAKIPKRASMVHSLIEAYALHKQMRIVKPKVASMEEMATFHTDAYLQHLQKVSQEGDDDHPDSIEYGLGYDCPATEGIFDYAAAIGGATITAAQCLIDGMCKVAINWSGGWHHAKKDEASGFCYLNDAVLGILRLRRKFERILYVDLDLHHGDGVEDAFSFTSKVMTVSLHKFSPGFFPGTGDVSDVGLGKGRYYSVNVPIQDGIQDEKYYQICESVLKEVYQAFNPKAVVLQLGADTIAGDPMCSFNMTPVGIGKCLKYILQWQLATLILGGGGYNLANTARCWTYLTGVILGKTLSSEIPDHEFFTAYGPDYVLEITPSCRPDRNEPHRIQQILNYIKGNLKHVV

recombinant human KDAC3 = target: T3, recombinant human KDAC3 (Homo sapiens, UniProt O15379); assay: KDAC inhibition assay, Caliper EZ Reader II; format: biochemical; conditions: for KDAC Inhibition Activity KDAC3 (% inhibition): % inhibition at 30 μM
T3 construct: purchased BPS Bioscience
T3 sequence (O15379 whole entry): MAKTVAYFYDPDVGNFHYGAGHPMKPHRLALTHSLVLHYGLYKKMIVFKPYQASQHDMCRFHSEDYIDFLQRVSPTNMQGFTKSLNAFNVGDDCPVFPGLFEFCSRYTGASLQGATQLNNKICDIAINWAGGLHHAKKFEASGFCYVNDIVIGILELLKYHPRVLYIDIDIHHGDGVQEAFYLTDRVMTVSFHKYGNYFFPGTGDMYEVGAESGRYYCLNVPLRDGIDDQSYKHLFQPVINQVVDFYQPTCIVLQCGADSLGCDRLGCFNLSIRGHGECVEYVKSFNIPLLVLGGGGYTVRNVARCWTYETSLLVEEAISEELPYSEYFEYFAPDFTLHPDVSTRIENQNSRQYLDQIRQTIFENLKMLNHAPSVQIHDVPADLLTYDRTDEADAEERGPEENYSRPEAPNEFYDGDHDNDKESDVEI
T3 sequence (Q9Y618 395-489 partner limits assumed): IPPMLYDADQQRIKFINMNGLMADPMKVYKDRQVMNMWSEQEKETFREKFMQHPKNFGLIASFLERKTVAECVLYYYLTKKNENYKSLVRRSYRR

recombinant human KDAC6 = target: T4, recombinant human KDAC6 (Homo sapiens, UniProt Q9UBN7); assay: KDAC inhibition assay, Caliper EZ Reader II; format: biochemical; conditions: for KDAC Inhibition Activity KDAC6 (% inhibition): % inhibition at 30 μM
T4 construct: purchased BPS Bioscience
T4 sequence (Q9UBN7 1-1215): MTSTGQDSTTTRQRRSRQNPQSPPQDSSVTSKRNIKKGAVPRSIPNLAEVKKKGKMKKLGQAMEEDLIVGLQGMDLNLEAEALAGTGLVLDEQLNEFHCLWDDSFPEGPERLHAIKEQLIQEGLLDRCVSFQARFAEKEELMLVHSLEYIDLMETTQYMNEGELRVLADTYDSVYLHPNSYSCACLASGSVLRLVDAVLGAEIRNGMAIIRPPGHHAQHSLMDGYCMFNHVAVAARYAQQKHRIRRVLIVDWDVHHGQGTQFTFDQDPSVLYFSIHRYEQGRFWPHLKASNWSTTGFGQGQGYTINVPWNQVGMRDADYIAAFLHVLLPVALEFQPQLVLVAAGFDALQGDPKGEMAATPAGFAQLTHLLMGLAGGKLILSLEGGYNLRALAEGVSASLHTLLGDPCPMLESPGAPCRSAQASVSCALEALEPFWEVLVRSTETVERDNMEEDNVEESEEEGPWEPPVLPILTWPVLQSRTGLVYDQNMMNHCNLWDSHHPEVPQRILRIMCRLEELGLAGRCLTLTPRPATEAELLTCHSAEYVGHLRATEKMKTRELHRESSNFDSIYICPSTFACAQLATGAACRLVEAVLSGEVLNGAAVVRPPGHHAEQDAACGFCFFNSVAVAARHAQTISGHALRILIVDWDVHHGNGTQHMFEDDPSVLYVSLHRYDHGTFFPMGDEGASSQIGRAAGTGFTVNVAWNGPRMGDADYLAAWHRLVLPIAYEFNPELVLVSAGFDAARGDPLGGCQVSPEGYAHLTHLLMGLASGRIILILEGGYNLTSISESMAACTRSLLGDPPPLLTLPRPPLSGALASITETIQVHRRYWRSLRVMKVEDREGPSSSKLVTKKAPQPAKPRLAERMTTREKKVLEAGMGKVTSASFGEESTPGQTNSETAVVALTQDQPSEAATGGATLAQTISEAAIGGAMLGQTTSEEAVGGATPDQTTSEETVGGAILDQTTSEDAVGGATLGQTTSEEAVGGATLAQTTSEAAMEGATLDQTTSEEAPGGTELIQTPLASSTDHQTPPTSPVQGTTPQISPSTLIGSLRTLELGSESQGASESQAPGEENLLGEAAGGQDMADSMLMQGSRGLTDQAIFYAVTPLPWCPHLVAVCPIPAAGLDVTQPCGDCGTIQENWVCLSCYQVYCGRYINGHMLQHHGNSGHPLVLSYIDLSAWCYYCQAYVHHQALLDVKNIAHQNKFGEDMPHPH

Molecule	KDAC Inhibition Activity KDAC3 (% inhibition) (recombinant human KDAC3) [%]	KDAC Inhibition Activity KDAC1 (% inhibition) (recombinant human KDAC1)	KDAC Inhibition Activity KDAC6 (% inhibition) (recombinant human KDAC6) [%]	KDAC Inhibition Activity KDAC8 (% inhibition) (recombinant human KDAC8)	pEC50 [2]	inhibition at 30 µM (recombinant human KDAC8) [%]	further results
CCCCCCCC(=O)SCC/C=C/[C@@H]1CC(=O)NCc2nc(cs2)C2=N[C@@](C)(CS2)C(=O)N[C@@H](C(C)C)C(=O)O1 [Largazole, largazole]					6.82	28	pIC50 (recombinant human KDAC1): 5.63; reactivation of virus from latency, HIV-1 p24 ELISA in culture supernatants [1]: able to reactivate virus from latency; potency against KDAC1, KDAC2, and KDAC3 (KDAC1, KDAC2, and KDAC3): picomolar range
CC(=O)SCC/C=C/[C@@H]1CC(=O)NCc2cc(ccn2)C2=N[C@@](C)(CS2)C(=O)N[C@@H](C(C)C)C(=O)O1 [SD-L-256, reference compound]					5.80	39	pIC50 (recombinant human KDAC3; 10-point dose curve from 30 μM, read-out: KDAC Inhibition Activity (IC50) KDAC3): 6.33; IC50 (recombinant human KDAC3; read-out: KDAC Inhibition Activity (pIC50) KDAC3 (converted)): 479 nM; pIC50 (recombinant human KDAC1; 10-point dose curve from 30 μM): 5.46; pIC50 (recombinant human KDAC6; 10-point dose curve from 30 μM): 5.79; pIC50 (recombinant human KDAC8; 10-point dose curve from 30 μM): < 4.52
Cyclo-^DAsp(^DPro-Pro-Val)-OBn [Compound 1b]	10	7%	8	9%			

Second part, led by results:

KDAC Inhibition Activity KDAC3 (% inhibition) (recombinant human KDAC3) [%]	KDAC Inhibition Activity KDAC1 (% inhibition) (recombinant human KDAC1)	KDAC Inhibition Activity KDAC6 (% inhibition) (recombinant human KDAC6) [%]	KDAC Inhibition Activity KDAC8 (% inhibition) (recombinant human KDAC8)	Molecule	pEC50 [2]	inhibition at 30 µM (recombinant human KDAC8) [%]	further results
7	5%	7	Not active	Cyclo-^DAsp(^DPro-Pro-Val)-NHCH2CH2S—SCH2CH2NH2 [Compound 15b]			
4	Not active	16	10%	Cyclo-^DAsp(^DPro-Pro-Val)-NHCH2CH2S—SCH2CH2NHP(O)(OPh) [Compound 11b]			
